In PubChem BioAssay AID1963842 (Molecular Pharmacology Branch, DTP, NCI, 2024):

System: 677734-321-R-J1-PDC complex spheroid viability
Assay: Anticancer human tumor 677734-321-R-J1-PDC patient-derived soft tissue sarcoma cell line growth inhibition [POLQ]
Conditions: for IC50: curve of first compound; for viability, T/C: stronger effect = lower value
How it was run: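 Complex spheroid viability model combining PDC tumour cells with endothelial (HUVEC) and MSC stromal cells. Novobiocin, ART-558 or RP6685 were tested singly and in combination with standard and investigational anticancer drugs. Each was titrated in half-log steps from near clinical Cmax, or from 10 microM where Cmax was unknown.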

[1] = second compound 0.0316 µM, first compound 0.0316 µM
[2] = second compound 0.0316 µM, first compound 0.1 µM
[3] = second compound 0.0316 µM, first compound 0.316 µM
[4] = second compound 0.0316 µM, first compound 1 µM
[5] = second compound 0.0316 µM, first compound 3.16 µM
[6] = second compound 0.0316 µM, first compound 10 µM
[7] = second compound 0.1 µM, first compound 0.0316 µM
[8] = second compound 0.1 µM, first compound 0.1 µM
[9] = second compound 0.1 µM, first compound 0.316 µM
[10] = second compound 0.1 µM, first compound 1 µM
[11] = second compound 0.1 µM, first compound 3.16 µM
[12] = second compound 0.1 µM, first compound 10 µM
[13] = second compound 0.316 µM, first compound 0.0316 µM
[14] = second compound 0.316 µM, first compound 0.1 µM
[15] = second compound 0.316 µM, first compound 0.316 µM
[16] = second compound 0.316 µM, first compound 1 µM
[17] = second compound 0.316 µM, first compound 3.16 µM
[18] = second compound 0.316 µM, first compound 10 µM
[19] = second compound 1 µM, first compound 0.0316 µM
[20] = second compound 1 µM, first compound 0.1 µM
[21] = second compound 1 µM, first compound 0.316 µM
[22] = second compound 1 µM, first compound 1 µM
[23] = second compound 1 µM, first compound 3.16 µM
[24] = second compound 1 µM, first compound 10 µM
[25] = second compound 3.16 µM, first compound 0.0316 µM
[26] = second compound 3.16 µM, first compound 0.1 µM
[27] = second compound 3.16 µM, first compound 0.316 µM
[28] = second compound 3.16 µM, first compound 1 µM
[29] = second compound 3.16 µM, first compound 3.16 µM
[30] = second compound 3.16 µM, first compound 10 µM
[31] = second compound 10 µM, first compound 0.0316 µM
[32] = second compound 10 µM, first compound 0.1 µM
[33] = second compound 10 µM, first compound 0.316 µM
[34] = second compound 10 µM, first compound 1 µM
[35] = second compound 10 µM, first compound 3.16 µM
[36] = second compound 10 µM, first compound 10 µM
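Further: spheroids exposed to compounds for one week.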
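Wherever viability, T/C is given: 100% = vehicle DMSO treated spheroids.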

## CC(C)n1c(=O)n(C)c2cnc3cc(F)c(-c4ccc(OCCCN5CCCCC5)nc4)cc3c21 + COC1C(OC(N)=O)C(O)C(Oc2ccc3c(O)c(NC(=O)c4ccc(O)c(CC=C(C)C)c4)c(=O)oc3c2C)OC1(C)C
Second compound 0.0316 µM
  IC50: > 10 µM
Second compound 0.1 µM
  IC50: > 10 µM
Second compound 0.316 µM
  IC50: > 10 µM
Second compound 1 µM
  IC50: > 10 µM
Second compound 3.16 µM
  IC50: > 10 µM
Second compound 10 µM
  IC50: > 10 µM
[1]
  viability, T/C: 117%
[2]
  viability, T/C: 104%
[3]
  viability, T/C: 109%
[4]
  viability, T/C: 107%
[5]
  viability, T/C: 111%
[6]
  viability, T/C: 110%
[7]
  viability, T/C: 104%
[8]
  viability, T/C: 109%
[9]
  viability, T/C: 106%
[10]
  viability, T/C: 111%
[11]
  viability, T/C: 117%
[12]
  viability, T/C: 101%
[13]
  viability, T/C: 108%
[14]
  viability, T/C: 107%
[15]
  viability, T/C: 106%
[16]
  viability, T/C: 113%
[17]
  viability, T/C: 112%
[18]
  viability, T/C: 106%
[19]
  viability, T/C: 108%
[20]
  viability, T/C: 102%
[21]
  viability, T/C: 113%
[22]
  viability, T/C: 113%
[23]
  viability, T/C: 109%
[24]
  viability, T/C: 107%
[25]
  viability, T/C: 107%
[26]
  viability, T/C: 107%
[27]
  viability, T/C: 106%
[28]
  viability, T/C: 115%
[29]
  viability, T/C: 104%
[30]
  viability, T/C: 107%
[31]
  viability, T/C: 109%
[32]
  viability, T/C: 106%
[33]
  viability, T/C: 111%
[34]
  viability, T/C: 113%
[35]
  viability, T/C: 106%
[36]
  viability, T/C: 102%

## CC1COCCN1c1cc(-c2ccnn2C)c2ccnc(-c3ccn[nH]3)c2n1 (stereo unspecified) + COC1C(OC(N)=O)C(O)C(Oc2ccc3c(O)c(NC(=O)c4ccc(O)c(CC=C(C)C)c4)c(=O)oc3c2C)OC1(C)C
Second compound 0.0316 µM
  IC50: 0.153 µM
Second compound 0.1 µM
  IC50: 0.145 µM
Second compound 0.316 µM
  IC50: 0.142 µM
Second compound 1 µM
  IC50: 0.146 µM
Second compound 3.16 µM
  IC50: 0.145 µM
Second compound 10 µM
  IC50: 0.127 µM
[1]
  viability, T/C: 98.5%
[2]
  viability, T/C: 65.1%
[3]
  viability, T/C: 23.7%
[4]
  viability, T/C: 15.9%
[5]
  viability, T/C: 6.88%
[6]
  viability, T/C: 15.2%
[7]
  viability, T/C: 97.5%
[8]
  viability, T/C: 61.8%
[9]
  viability, T/C: 25.2%
[10]
  viability, T/C: 16.6%
[11]
  viability, T/C: 8.53%
[12]
  viability, T/C: 17.1%
[13]
  viability, T/C: 95.8%
[14]
  viability, T/C: 61.8%
[15]
  viability, T/C: 22.7%
[16]
  viability, T/C: 19.8%
[17]
  viability, T/C: 6.32%
[18]
  viability, T/C: 15.3%
[19]
  viability, T/C: 110%
[20]
  viability, T/C: 62.7%
[21]
  viability, T/C: 23.8%
[22]
  viability, T/C: 16.6%
[23]
  viability, T/C: 7.91%
[24]
  viability, T/C: 16.6%
[25]
  viability, T/C: 102%
[26]
  viability, T/C: 61.2%
[27]
  viability, T/C: 26.3%
[28]
  viability, T/C: 16.6%
[29]
  viability, T/C: 6.66%
[30]
  viability, T/C: 14.4%
[31]
  viability, T/C: 98.1%
[32]
  viability, T/C: 57.9%
[33]
  viability, T/C: 20.1%
[34]
  viability, T/C: 17.1%
[35]
  viability, T/C: 8.68%
[36]
  viability, T/C: 16.7%

## COc1ccc([C@@H](O)c2cc(-c3ncnc4cc(N5CCOCC5)ccc34)c(F)cc2Cl)nn1 + COC1C(OC(N)=O)C(O)C(Oc2ccc3c(O)c(NC(=O)c4ccc(O)c(CC=C(C)C)c4)c(=O)oc3c2C)OC1(C)C
Second compound 0.0316 µM
  IC50: > 10 µM
Second compound 0.1 µM
  IC50: 9.81 µM
Second compound 0.316 µM
  IC50: 9.58 µM
Second compound 1 µM
  IC50: > 10 µM
Second compound 3.16 µM
  IC50: > 10 µM
Second compound 10 µM
  IC50: > 10 µM
[1]
  viability, T/C: 106%
[2]
  viability, T/C: 112%
[3]
  viability, T/C: 99.7%
[4]
  viability, T/C: 105%
[5]
  viability, T/C: 82.1%
[6]
  viability, T/C: 56.9%
[7]
  viability, T/C: 112%
[8]
  viability, T/C: 107%
[9]
  viability, T/C: 100%
[10]
  viability, T/C: 98.2%
[11]
  viability, T/C: 83.8%
[12]
  viability, T/C: 48.8%
[13]
  viability, T/C: 110%
[14]
  viability, T/C: 104%
[15]
  viability, T/C: 104%
[16]
  viability, T/C: 98.4%
[17]
  viability, T/C: 82.5%
[18]
  viability, T/C: 48.6%
[19]
  viability, T/C: 111%
[20]
  viability, T/C: 102%
[21]
  viability, T/C: 97.3%
[22]
  viability, T/C: 100%
[23]
  viability, T/C: 79.4%
[24]
  viability, T/C: 52.5%
[25]
  viability, T/C: 107%
[26]
  viability, T/C: 106%
[27]
  viability, T/C: 106%
[28]
  viability, T/C: 93.1%
[29]
  viability, T/C: 79.5%
[30]
  viability, T/C: 56.1%
[31]
  viability, T/C: 111%
[32]
  viability, T/C: 105%
[33]
  viability, T/C: 104%
[34]
  viability, T/C: 108%
[35]
  viability, T/C: 85.1%
[36]
  viability, T/C: 50.9%
